Test system: green peach aphid (Myzus persicae)
Assay: Insecticidal test for green peach aphid in foliar spray assay
Assay type: in vivo
Conditions: 72 h, foliar spray on cabbage, Corrected % Control (Abbott) after three days, read-out: Rating against green peach aphid on cabbage (foliar spray)
Method: Squash seedlings with fully expanded cotyledon leaves were trimmed to one cotyledon per plant and infested with cotton aphid (wingless adults and nymphs) 1 day prior to chemical application. Each plant was examined before chemical application to ensure uniform infestation (ca. 30-70 aphids per plant). Compounds (2 mg) were dissolved in 2 ml of acetone:methanol (1:1) solvent, forming stock solutions of 1000 ppm. The stock solutions were diluted 5× with 0.025% Tween 20 in H2O to obtain a solution at 200 ppm. A hand-held Devilbiss aspirator type sprayer was used to apply the spray solutions until runoff to both sides of the squash cotyledon leaves. Four plants (4 replications) were used for each compound. Reference plants (solvent check) were sprayed with the diluent only. Treated plants were held in a holding room for 3 days at approximately 23° C. and 40% RH before the number of live aphids on each plant was recorded. Insecticidal activity was measured by Corrected % Control using Abbott's correction formula and presented in Table 1-Activity: Corrected % Control=100*(X−Y)/X • where X=No. of live aphids on solvent check plants • Y=No. of live aphids on treated plants Results are shown in Table 7. Insecticidal Test for Green Peach Aphid (Myzus persicae) in Foliar Spray Assay Cabbage seedlings grown in 3-inch pots, with 2-3 small (3-5 cm) true leaves, were used as test substrate. The seedlings were infested with 20-50 green peach aphids (wingless adult and nymph) 1-2 days prior to chemical application. Four seedlings were used for each treatment. Compounds (2 mg) were dissolved in 2 ml of acetone:methanol (1:1) solvent, forming stock solutions of 1000 ppm. The stock solutions were diluted 5× with 0.025% Tween 20 in H2O to obtain a solution at 200 ppm. A hand-held Devilbiss aspirator sprayer was used for spraying a solution to both sides of cabbage leaves until runoff. Reference plants (solvent check) were sprayed with the diluent only. Treated plants were held in a holding room for three days at approximately 23° C. and 40% RH prior to grading. Evaluation was conducted by counting the number of live aphids per plant under a microscope. Insecticidal activity was measured by using Abbott's correction formula: Corrected % Control=100*(X−Y)/X • where X=No. of live aphids on solvent check plants • Y=No. of live aphids on treated plants

## CC(c1ccc(C(F)(F)F)nc1)S(C)(=O)=Nc1nc(-c2cccc(Cl)c2)cs1 (stereo not drawn) [Compound 21]
  pest or weed control at 200 ppm: 80 to 100%

## Cc1nc(N=S(C)(=O)C(C)c2ccc(C(F)(F)F)nc2)oc1C (stereo not drawn) [Compound 72]
  pest or weed control at 200 ppm: < 80%

## CC(c1ccc(C(F)(F)F)nc1)S(C)(=O)=Nc1nc(-c2ccc3c(c2)OCO3)cs1 (stereo not drawn) [Compound 47]
  pest or weed control at 200 ppm: 80 to 100%

## CC(c1ccc(C(F)(F)F)nc1)S(C)(=O)=Nc1nc(C(F)(F)F)cs1 (stereo not drawn) [Compound 26, 3-[1-ethyl(N-(2-(4-trifluoromethyl)thiazole)-sulfoximinyl)(methyl)]-6-trifluoromethylpyridine]
  pest or weed control at 200 ppm: 80 to 100%

## CSCc1cnc(N=S(C)(=O)C(C)c2ccc(C(F)(F)F)nc2)s1 (stereo not drawn) [Compound 64, 5-[1-(methyl{5-[(methylsulfanyl)methyl]-1,3-thiazol-2-yl}sulfonimidoyl)ethyl]-2-(trifluoromethyl)pyridine]
  pest or weed control at 200 ppm: 80 to 100%

## CC(c1ccc(C(F)(F)F)nc1)S(C)(=O)=Nc1nc(-c2ccc(Cl)cc2)cs1 (stereo not drawn) [Compound 22]
  pest or weed control at 200 ppm: 80 to 100%

## COc1ccc(-c2csc(N=S(C)(=O)C(C)c3ccc(C(F)(F)F)nc3)n2)c(OC)c1 (stereo not drawn) [Compound 53]
  pest or weed control at 200 ppm: 80 to 100%

## Cc1ccsc1-c1nc(N=S(C)(=O)C(C)c2ccc(C(F)(F)F)nc2)sc1C (stereo not drawn) [Compound 36]
  pest or weed control at 200 ppm: 80 to 100%

## CC(c1ccc(C(F)(F)F)nc1)S(C)(=O)=Nc1nc2c(s1)CCc1nonc1-2 (racemic) [Compound 65, 7-[(methyl(oxo){1-[6-(trifluoromethyl)-3-pyridinyl]ethyl}-λ^6-sulfanylidene)amino]-4,5-dihydro[1,3]thiazolo[4,5-e][2,1,3]-benzoxadiazole]
  pest or weed control at 200 ppm: 80 to 100%

## Cc1nc(N=S(C)(=O)C(C)c2ccc(C(F)(F)F)nc2)sc1C (stereo not drawn) [Compound 67, 5-{1-[(4,5-dimethyl-1,3-thiazol-2-yl)(methyl)sulfonimidoyl]ethyl}-2-(trifluoromethyl)pyridine]
  pest or weed control at 200 ppm: 80 to 100%

## Cc1oc(N=S(C)(=O)C(C)c2ccc(C(F)(F)F)nc2)nc1-c1ccc(Br)cc1 (stereo not drawn) [Compound 73]
  pest or weed control at 200 ppm: 80 to 100%

## CC(c1ccc(C(F)(F)F)nc1)S(C)(=O)=Nc1cccc(F)n1 (stereo not drawn) [Compound 10]
  pest or weed control at 200 ppm: < 80%

## Cc1ccc(-c2csc(N=S(C)(=O)C(C)c3ccc(C(F)(F)F)nc3)n2)cc1 (stereo not drawn) [Compound 19, 5-{1-[methyl(4-(4-methylphenyl)-1,3-thiazol-2-yl)sulfonimidoyl]ethyl}-2-(trifluoromethyl)pyridine]
  pest or weed control at 200 ppm: 80 to 100%

## CC(c1ccc(C(F)(F)F)nc1)S(C)(=O)=Nc1ncc(Cc2ccccc2)s1 (racemic) [Compound 61, 5-{1-[(5-benzyl-1,3-thiazol-2-yl)(methyl)sulfonimidoyl]ethyl}-2-(trifluoromethyl)pyridine]
  pest or weed control at 200 ppm: 80 to 100%

## Cc1cc(-c2csc(N=S(C)(=O)C(C)c3ccc(C(F)(F)F)nc3)n2)ccc1Cl (stereo not drawn) [Compound 50]
  pest or weed control at 200 ppm: 80 to 100%

## Cc1csc(N=S(C)(=O)C(C)c2ccc(C(F)(F)F)nc2)n1 (stereo not drawn) [Compound 14]
  pest or weed control at 200 ppm: < 80%

## CC(c1ccc(C(F)(F)F)nc1)S(C)(=O)=Nc1nc(-c2ccccc2)co1 (stereo not drawn) [Compound 74]
  pest or weed control at 200 ppm: < 80%

## CC(c1ccc(C(F)(F)F)nc1)S(C)(=O)=Nc1ccsc1[N+](=O)[O-] (stereo not drawn) [Compound 17]
  pest or weed control at 200 ppm: < 80%

## CC(c1ccc(C(F)(F)F)nc1)S(C)(=O)=Nc1nc(-c2csc3ccccc23)cs1 (stereo not drawn) [Compound 40]
  pest or weed control at 200 ppm: 80 to 100%

## COc1ccc(-c2csc(N=S(C)(=O)Cc3ccc(Cl)nc3)n2)cc1 (stereo not drawn) [Compound 57, 5-{[methyl[4-(4-methoxyphenyl)-1,3-thiazol-2-yl]sulfonimidoyl]methyl}-2-chloropyridine]
  pest or weed control at 200 ppm: < 80%

## CC(c1ccc(C(F)(F)F)nc1)S(C)(=O)=Nc1nc2ccccc2s1 (stereo not drawn) [Compound 25, 3-[1-ethyl(N-(2-benzothiazole)-sulfoximinyl)(methyl)]-6-trifluoromethylpyridine]
  pest or weed control at 200 ppm: < 80%

## CCCCC(c1ccc(C(F)(F)F)nc1)S(C)(=O)=Nc1nc(-c2ccc(OC)cc2)cs1 (stereo not drawn) [Compound 60, 5-{1-[methyl(4-(4-methoxyphenyl)-1,3-thiazol-2-yl)sulfonimidoyl]pentyl}-2-(trifluoromethyl)pyridine]
  pest or weed control at 200 ppm: < 80%

## Cc1coc(N=S(C)(=O)C(C)c2ccc(C(F)(F)F)nc2)n1 (stereo not drawn) [Compound 71]
  pest or weed control at 200 ppm: 80 to 100%

## Cc1sc(N=S(C)(=O)C(C)c2ccc(C(F)(F)F)nc2)nc1-c1ccccc1 (stereo not drawn) [Compound 66, 5-{1-[methyl(5-methyl-4-phenyl-1,3-thiazol-2-yl)sulfonimidoyl]ethyl}-2-(trifluoromethyl)pyridine]
  pest or weed control at 200 ppm: 80 to 100%

## CC(c1ccc(C(F)(F)F)nc1)S(C)(=O)=Nc1cc(F)ccn1 (stereo not drawn) [Compound 3, 3-[1-ethyl(N-(2-(4-fluoro)pyridine)-sulfoximinyl)(methyl)]-6-trifluoromethylpyridine]
  pest or weed control at 200 ppm: 80 to 100%

## CCOC(C)(C)c1csc(N=S(C)(=O)C(C)c2ccc(C(F)(F)F)nc2)n1 (stereo not drawn) [Compound 31]
  pest or weed control at 200 ppm: 80 to 100%

## CC(c1ccc(C(F)(F)F)nc1)S(C)(=O)=Nc1nc(-c2ccncc2)cs1 (stereo not drawn) [Compound 34]
  pest or weed control at 200 ppm: 80 to 100%

## CCc1csc(N=S(C)(=O)C(C)c2ccc(C(F)(F)F)nc2)n1 (stereo not drawn) [Compound 28]
  pest or weed control at 200 ppm: 80 to 100%

## CC(c1ccc(C(F)(F)F)nc1)S(C)(=O)=Nc1ncc(C#N)s1 (stereo not drawn) [Compound 16]
  pest or weed control at 200 ppm: 80 to 100%

## O=S1(=Nc2nc(C(F)(F)F)cs2)CCCC1c1ccc(Cl)nc1 (stereo not drawn) [Compound 79]
  pest or weed control at 200 ppm: 80 to 100%

## COc1ccc(-c2csc(N=S(C)(=O)C(C)c3ccc(C(F)(F)F)nc3)n2)cc1 (stereo not drawn) [Compound 23]
  pest or weed control at 200 ppm: 80 to 100%

## CC(c1ccc(C(F)(F)F)nc1)S(C)(=O)=Nc1ncc(-c2ccccc2)s1 (stereo not drawn) [Compound 62, 5-{1-[methyl(5-phenyl-1,3-thiazol-2-yl)sulfonimidoyl]ethyl}-2-(trifluoromethyl)pyridine]
  pest or weed control at 200 ppm: 80 to 100%

## CC(c1ccc(C(F)(F)F)nc1)S(C)(=O)=Nc1nnc(C(F)F)s1 (racemic) [Compound 69, 5-{1-[[5-(difluoromethyl)-1,3,4-thiadiazol-2-yl](methyl)sulfonimidoyl]ethyl}-2-(trifluoromethyl)pyridine]
  pest or weed control at 200 ppm: 80 to 100%

## CC(c1ccc(C(F)(F)F)nc1)S(C)(=O)=Nc1ncccc1F (stereo not drawn) [Compound 9]
  pest or weed control at 200 ppm: 80 to 100%

## CC(c1ccc(C(F)(F)F)nc1)S(C)(=O)=Nc1nc(-c2ccc([N+](=O)[O-])cc2)cs1 (stereo not drawn) [Compound 49]
  pest or weed control at 200 ppm: 80 to 100%

## CC(c1ccc(C(F)(F)F)nc1)S(C)(=O)=Nc1cccc(C(F)(F)F)n1 (stereo not drawn) [Compound 11]
  pest or weed control at 200 ppm: < 80%

## Cc1cnc(N=S(C)(=O)C(C)c2ccc(C(F)(F)F)nc2)s1 (stereo not drawn) [Compound 63, 5-{1-[methyl(5-methyl-1,3-thiazol-2-yl)sulfonimidoyl]ethyl}-2-(trifluoromethyl)pyridine]
  pest or weed control at 200 ppm: 80 to 100%

## CCOC(=O)c1csc(N=S(C)(=O)C(C)c2ccc(C(F)(F)F)nc2)n1 (stereo not drawn) [Compound 18]
  pest or weed control at 200 ppm: 80 to 100%

## Cc1sc(N=S(C)(=O)C(C)c2ccc(C(F)(F)F)nc2)nc1-c1ccc(Br)cc1 (stereo not drawn) [Compound 68, 5-{1-[[4-(4-bromophenyl)-5-methyl-1,3-thiazol-2-yl](methyl)sulfonimidoyl]ethyl}-2-(trifluoromethyl)pyridine]
  pest or weed control at 200 ppm: 80 to 100%

Source: patent US8513462B2, “Pesticides and uses thereof” (Dow AgroSciences LLC, priority 2007, dated 2013)
